Assays:
[1] = system: Leishmania amazonensis; assay: Antileishmanial activity against Leishmania amazonensis IFLA/BR/67/PH8 promastigotes […] assessed as inhibition of parasite growth after 72 hrs by MTT assay; type: functional, organism-based; conditions: IFLA/BR/67/PH8, 72 h
[2] = Cytotoxicity against Swiss mouse peritoneal macrophages after 24 hrs by MTT assay; type: cell-based, Peritoneal macrophage cell
[3] = Selectivity index, ratio of CC50 for Swiss mouse peritoneal macrophages to IC50 for Leishmania amazonensis IFLA/BR/67/PH8 promastigotes; type: functional
[4] = system: Leishmania amazonensis; assay: Antileishmanial activity against Leishmania amazonensis; type: functional, organism-based

| IC50 [4] [µM] | SMILES | IC50 [1] [µM] | CC50 at 24 h [2] [µM] | Ratio CC50/IC50 [3] |
| --- | --- | --- | --- | --- |
|  | C=C(C(=O)OCCC)C(O)c1cccc([N+](=O)[O-])c1 (racemic) | 72.2 | 114 | 1.57 |
| 62 | C=C(C(=O)OC)C(O)c1ccccc1[N+](=O)[O-] (centres undefined) |  |  |  |
|  | C=C(C(=O)OCCC)C(O)c1ccccc1[N+](=O)[O-] (racemic) | 28.4 | 135 | 4.75 |
|  | C=C(C(=O)OCCO)C(O)c1ccc(Br)cc1 (racemic) | 56.7 | 157 | 2.77 |
|  | C=C(C(=O)OCCC)C(O)c1cccnc1 (racemic) | 211 | 384 | 1.81 |
|  | C=C(C(=O)OCCO)C(O)c1ccccc1[N+](=O)[O-] (racemic) | 20.5 | 112 | 5.43 |
|  | C=C(C(=O)OCCO)C(O)c1ccc2ccccc2c1 (racemic) | 52.5 | 118 | 2.24 |
|  | C=C(C(=O)OCCO)C(O)c1cccc([N+](=O)[O-])c1 (racemic) | 64.6 | 69 | 1.06 |
|  | C=C(C(=O)OCCC)C(O)c1ccc2ccccc2c1 (racemic) | 54.5 | 149 | 2.59 |
|  | C=C(C(=O)OCCO)C(O)c1ccccn1 (racemic) | 266 | 749 | 2.81 |
|  | C=C(C(=O)OCCC)C(O)c1ccc([N+](=O)[O-])cc1 (racemic) | 52 | 122 | 2.33 |
|  | C=C(C(=O)OCCC)C(O)c1ccccn1 (racemic) | 194 | 715 | 3.68 |
|  | C=C(C(=O)OCCC)C(O)c1ccc(Br)cc1 (racemic) | 74.7 | 125 | 1.67 |
|  | C=C(C(=O)OCCC)C(O)c1ccncc1 (racemic) | 149 | 272 | 1.83 |
|  | C=C(C(=O)OCCO)C(O)c1ccncc1 (racemic) | 382 | 458 | 1.2 |
|  | C=C(C(=O)OCCO)C(O)c1cccnc1 (racemic) | 324 | 418 | 1.29 |
|  | C=C(C(=O)OCCO)C(O)c1ccc([N+](=O)[O-])cc1 (racemic) | 53 | 46.9 | 0.88 |

Reference: ChEMBL document CHEMBL1821624, “Synthesis, evaluation against Leishmania amazonensis and cytotoxicity assays in macrophages of sixteen new congeners Morita-Baylis-Hillman adducts” (Eur J Med Chem, 2011)
